Data taken from publication PMC6027433, “Synthesis, Evaluation of Cytotoxicity and Molecular Docking Studies of the 7-Acetamido Substituted 2-Aryl-5-bromo-3-trifluoroacetylindoles as Potential Inhibitors of Tubulin Polymerization” (Pharmaceuticals, 2018).

What was measured:
[1] = system: cervical cancer (HeLa) cells; assay: MTT dose response cytotoxicity, HeLa; type: cell-based; conditions: Homo sapiens, 48 h
Description: (§1) Cells were seeded as described in above. […] The medium was aspirated and replaced with 200 μL fresh medium containing the dilution of the respective test compound. The test sample were added to each well and the plates were incubated for a further 48 h at 37 °C under 5% CO2 atmosphere in a humidified incubator. After this incubation period, the medium was removed and then replaced with 100 μL fresh culture medium containing MTT at a final concentration of 0.5 mg/mL. The 96-well plates were returned to the incubator and incubated for an additional 3 h. The medium was removed and the MTT crystals were solubilized in 100 μL DMSO and the absorbance was measured at 560 nm using a Labsystems Multiwell Scanning spectrophotometer (Thermo Fischer Scientific, Edenvale, South Africa).
(§2) Quantification of live and dead cells for the screening assay was performed using the ImageXpress Micro XLS Widefield Microscope and acquired images analysed using the MetaXpress software and Multi-Wavelength Cell Scoring Application Module. Acquired data was transferred to an EXCEL spreadsheet and relative cell viability was determined using quadruplicate wells for each concentration. Untreated cells were considered to have 100% cell viability (i.e., the mean OD of the untreated wells = 100% viability). Cell viabilities in other test wells were calculated relative to the untreated control and expressed as a percentage. Dose response analysis was performed using the statistical software GraphPad Prism and IC50 values calculated from the concentration-response data using a mathematical Hill function.

[2] = system: lung cancer (A549) cells; assay: MTT dose response cytotoxicity, A549; type: cell-based; conditions: Homo sapiens, 48 h
Description: as §1, §2

[3] = system: A549 cancer cells; assay: Two-concentration cytotoxicity screen (Hoechst 33342/PI imaging), A549; type: cell-based; conditions: 10 μM and 100 μM, 48 h
Description: (§3) The HeLa and A549 cancer cells were initially exposed to two concentrations of each test compound (10 μM and 100 μM) for 48 h with a well-known chemotherapeutic drug, Melphalan, used as a reference standard at the same concentrations (Table 2 and Table 3). Acquisition was performed using the ImageXpress Micro XLS Widefield Microscope and the acquired images were analyzed using the MetaXpress software and Multi-Wavelength Cell Scoring Application Module (see Figure S2 in the Supplementary Information for cell viability percentages for each compound). The structure activity relationship (SAR) of these compounds has been evaluated with respect to the substitution patterns on the 2-phenyl ring, C-3 and C-7 positions.
(§4) The human cervical cancer cell line, HeLa, and lung cancer cell line, A549 were used for the screening assay. HeLa cells were grown and maintained in RPMI 1640 medium supplemented with 10% fetal bovine serum (FBS) and A549 cells were grown and maintained in EMEM supplemented with 10% FBS and 10% non-essential amino acids. In the case of screening experiments, the cells were seeded into 96 well microtiter plates at a density of 6000 cells/well to a total volume of 200 μL per well. The microtiter plates were incubated at 37 °C, 5% CO2, and 100% relative humidity for 24 h to allow for cell attachment. Each of the test compounds was first reconstituted in DMSO at a concentration of 40 mM and then stored at 4 °C prior to use and final dilution to working concentrations with culture complete medium on the day of treatment. Two hundred microliters aliquots of the diluted compound in fresh medium was used to treat cells after aspiration of seeding medium. Each of the cell lines was incubated for 48 h at 37 °C in a humidified incubator under 5% CO2 atmosphere. Treatment medium was aspirated from all wells and replaced with 100 μL of Hoechst 33342 nuclear dye (5 μg/mL) and incubated for 10 min at room temperature. Thereafter, cells were stained with propidium iodide (PI) at 100 μg/mL in order to enumerate the proportion of dead cells within the population. […]
as §2, with “Untreated cells were considered to have 100% cell viability (i.e., the mean OD of the untreated wells = 100% viability).” left out

[4] = system: HeLa cancer cells; assay: Two-concentration cytotoxicity screen (Hoechst 33342/PI imaging), HeLa; type: cell-based; conditions: 10 μM and 100 μM, 48 h
Description: as §3, §4
as §2, with “Untreated cells were considered to have 100% cell viability (i.e., the mean OD of the untreated wells = 100% viability).” left out

[5] = system: A549 cells; assay: Caspase 8 and 3 activation (immunochemical), A549; type: cell-based, human; conditions: 24 h exposure at IC50 values
Description: (§5) Several distinctive mechanisms of cancer cell death such as apoptosis, necrosis, autophagy and cornification have been identified, and these are characterized by differences in morphology and biochemical changes. A major biochemical feature of apoptosis is the activation of caspases, which plays a central role in the morphological changes associated with apoptosis. Caspase activation was determined using immunochemical methods and the antibodies against activated caspase 8 and caspase 3. […] Activated caspase 8 can be used as a convenient indicator of involvement of the extrinsic death receptor pathway of apoptosis. Executioner caspases including caspase 3 are, in turn, activated by the initiator caspases. This protein is either partially or totally responsible for the cleavage of many key proteins such as PARP, DNA protein kinases and retinoblastoma protein [25]. […] This was true for both activated caspase 8 and 3. A more distinct increase was evident with caspase 3 albeit less pronounced than that of 4c and the increase was expected as caspase 3 is activated by initiator caspase including caspase 8, which is a later event in apoptosis. […] Prolonged treatment of the cells with compounds 5e–h for 48 h or more, for example, would probably result in significant effects. We also evaluated compound 5g for potential to induce other key apoptotic biochemical features such as phosphatidylserine (PS) translocation, cell cycle arrest and mitochondrial membrane depolarization.
(§6) Compounds 4c and 5g were selected for mechanism studies and these test compounds were reconstituted in dimethyl sulphoxide (DMSO) to give a final concentration of 40 mM. Samples were stored at 4 °C until required. […]
(§7) Quantification of live and dead cells for the assay was performed using the ImageXpress Micro XLS Widefield Microscope and acquired images analysed using the MetaXpress software and Multi-Wavelength Cell Scoring Application Module and the Cell Cycle Module. Acquired data was transferred to an EXCEL spreadsheet and data was analysed and processed.

[6] = system: HeLa cells; assay: Caspase 8 and 3 activation (immunochemical), HeLa; type: cell-based, human; conditions: 24 h exposure at IC50 values
Description: as §5, §6, §7

[7] = system: neurotesin receptor type 2 (NTS2); design: method as in PMID 25157640; conditions: cited from earlier work

| Compound | melting point | IC50 [1] | IC50 [2] | Cytotoxicity (percentage live cells compared to untreated control) [3] | Cytotoxicity (percentage live cells compared to untreated control) [4] | Caspase 8 and 3 activation (% change in mean integrated fluorescence intensity of the untreated control) [5] | Caspase 8 and 3 activation (% change in mean integrated fluorescence intensity of the untreated control) [6] | fold more active than the expected C-3 unsubstituted analogue ([7]; NTS2) | IC50 [7] |
| --- | --- | --- | --- | --- | --- | --- | --- | --- | --- |
| CC(=O)c1cc(Br)cc2cc(-c3ccccc3)[nH]c12 [Compound 2a, 1-(5-Bromo-2-phenyl-1H-indol-7-yl)ethanone] | 139 to 142 °C | > 200 µM | > 200 µM |  |  |  |  |  |  |
| CC(=O)c1cc(Br)cc2cc(-c3ccc(F)cc3)[nH]c12 [Compound 2b, 1-[5-Bromo-2-(4-fluorophenyl)-1H-indol-7-yl]ethanone] | 171 to 173 °C | > 200 µM | > 200 µM |  |  |  |  |  |  |
| CC(=O)c1cc(Br)cc2cc(-c3cccc(Cl)c3)[nH]c12 [Compound 2c, 1-[5-Bromo-2-(3-chlorophenyl)-1H-indol-7-yl]ethanone] | 140 to 143 °C | > 200 µM | > 200 µM |  |  |  |  |  |  |
| COc1ccc(-c2cc3cc(Br)cc(C(C)=O)c3[nH]2)cc1 [Compound 2d, 1-[5-Bromo-2-(4-methoxyphenyl)-1H-indol-7-yl]ethanone] | 140 to 142 °C | > 200 µM | > 200 µM |  |  |  |  |  |  |
| CC(=O)Nc1cc(Br)cc2cc(-c3ccccc3)[nH]c12 [Compound 4a, N-(5-Bromo-2-phenyl-1H-indol-7-yl)acetamide] |  | > 200 µM | > 200 µM | Lack of cytotoxicity | Lack of cytotoxicity |  |  |  |  |
| CC(=O)Nc1cc(Br)cc2cc(-c3ccc(F)cc3)[nH]c12 [Compound 4b, N-[5-Bromo-2-(4-fluorophenyl)-1H-indol-7-yl]acetamide] |  | 122.4 ± 1.02 µM | 116.2 ± 0.78 µM | modest cytotoxicity | modest cytotoxicity |  |  |  |  |
| CC(=O)Nc1cc(Br)cc2cc(-c3cccc(Cl)c3)[nH]c12 [Compound 4c, N-(5-Bromo-2-(3-chlorophenyl)-1H-indol-7-yl)acetamide] |  | 126.9 ± 1 µM | 154.6 ± 0.9 µM | modest cytotoxicity | modest cytotoxicity | clear increases | clear increases |  |  |
| COc1ccc(-c2cc3cc(Br)cc(NC(C)=O)c3[nH]2)cc1 [Compound 4d, N-[5-Bromo-2-(4-methoxyphenyl)-1H-indol-7-yl]acetamide] |  | 125 ± 0.88 µM | 146.8 ± 1 µM | modest cytotoxicity | modest cytotoxicity |  |  |  |  |
| CC(=O)c1cc(Br)cc2c(C(=O)C(F)(F)F)c(-c3ccccc3)[nH]c12 [Compound 5a, 1-(7-Acetyl-5-bromo-2-phenyl-1H-indol-3-yl)-2,2,2-trifluoroethanone] | 175 to 176 °C | > 200 µM | > 200 µM |  |  |  |  |  |  |
| CC(=O)c1cc(Br)cc2c(C(=O)C(F)(F)F)c(-c3ccc(F)cc3)[nH]c12 [Compound 5b, 1-[7-Acetyl-5-bromo-2-(4-fluorophenyl)-1H-indol-3-yl]-2,2,2-trifluoroethanone] | 168 to 171 °C | > 200 µM | > 200 µM |  |  |  |  |  |  |
| CC(=O)c1cc(Br)cc2c(C(=O)C(F)(F)F)c(-c3cccc(Cl)c3)[nH]c12 [Compound 5c, 1-[7-Acetyl-5-bromo-2-(3-chlorophenyl)-1H-indol-3-yl]-2,2,2-trifluoroethanone] | 138 to 141 °C | > 200 µM | > 200 µM |  |  |  |  |  |  |
| COc1ccc(-c2[nH]c3c(C(C)=O)cc(Br)cc3c2C(=O)C(F)(F)F)cc1 [Compound 5d, 1-[7-Acetyl-5-bromo-2-(4-methoxyphenyl)-1H-indol-3-yl]-2,2,2-trifluoroethanone] | 170 to 173 °C | > 200 µM | > 200 µM |  |  |  |  |  |  |
| CC(=O)Nc1cc(Br)cc2c(C(=O)C(F)(F)F)c(-c3ccccc3)[nH]c12 [Compound 5e, N-[5-Bromo-2-phenyl-3-trifluoroacetyl-1H-indol-7-yl]acetamide] | 141 to 144 °C | 12.9 ± 1.11 µM | 9.94 ± 0.99 µM |  |  |  |  |  |  |
| CC(=O)Nc1cc(Br)cc2c(C(=O)C(F)(F)F)c(-c3ccc(F)cc3)[nH]c12 [Compound 5f, N-[5-Bromo-2-(4-fluorophenyl)-3-trifluoroacetyl-1H-indol-7-yl]acetamide] | 195 to 197 °C | 7.95 ± 0.9 µM | 5.03 ± 0.71 µM |  |  |  |  |  |  |
| COc1ccc(-c2[nH]c3c(NC(C)=O)cc(Br)cc3c2C(=O)C(F)(F)F)cc1 [Compound 5h, N-[5-Bromo-2-(4-methoxyphenyl)-3-trifluoroacetyl-1H-indol-7-yl]acetamide] | 179 to 182 °C | 10.7 ± 1.03 µM | 3.26 ± 0.51 µM |  |  |  |  |  |  |
| N[C@@H](Cc1ccc(N(CCCl)CCCl)cc1)C(=O)O [Melphalan, reference compound] |  | 37.16 ± 0.22 µM | 30.7 ± 0.76 µM |  |  | clear increases | clear increases |  |  |
| Cc1ccc(S(=O)(=O)Nc2ccc3c(c2)c(C(=O)C(F)(F)F)cn3CC(=O)N[C@@H](CC(C)C)C(=O)O)cc1 [NTRC-824, N-[(5-{[(4-methylphenyl)sulfonyl]amino}-3-(trifluoroacetyl)-1H-indol-1-yl)acetyl]-L-leucine] |  |  |  |  |  |  |  | 90 fold | 0.038 µM |
